The text below walks through data of patent US20240116918A1, “SUBSTITUTED TRICYCLIC COMPOUND AS PRMT5 INHIBITOR AND USE THEREOF” (NANJING SANHOME PHARMACEUTICAL CO., LTD., priority 2019, published 2024).

As a reminder, the IC50 is the midpoint of a concentration-inhibition curve.

The test system of one data set is MDA-MB-468 cells. Put plainly: In vitro cell activity, MDA-MB-468 cells, CCK-8. The class given is cell-based. The conditions noted are these: Homo sapiens, MDA-MB-468, 168 h, read-out: IC50 MDA-MB-468 Cell, triple negative breast cancer cells, 7 days. On the procedure: Test compounds: the compounds of the present invention prepared in the above example. Each compound was formulated into a 10 mM stock solution with DMSO, and finally diluted into 8 concentrations for detection, with the final concentrations being 33333.00 nM, 6666.60 nM, 1333.32 nM, 266.66 nM, 53.33 nM, 10.67 nM, 2.13 nM, and 0.43 nM for experiments in Z-138 cells.
After thawing, the cryovial was taken out, and sterilized with an alcohol cotton ball, after which the cap was unscrewed. The cell fluid was drawn and injected into a centrifuge tube. 1 mL of L-15 medium containing 10% FBS was added, and mixed uniformly. The tube was placed in a centrifuge, and centrifuged at 1000 rpm for 5 min. Afterwards, the supernatant was discarded, and complete medium was added. The mixture was pipetted repeatedly until the cells were completely dispersed and resuspended. The mixture was inoculated in a petri dish at an appropriate concentration, and cultured in a CO2-free incubator at 37° C., and 95% humidified air.
The medium (Leibovitz's L-15 Medium+10% FBS+1% penicillin-streptomycin) was transferred to a 15 mL centrifuge tube, and centrifuged at 1000 rpm for 5 min. The supernatant was removed. The cells were resuspended in complete medium, and inoculated in a petri dish at the desired density. The dish was placed in a CO2-free incubator at 37° C., and 95% humid air. The culture medium was changed every 2-3 days or the passage was carried out, depending on the cell growth.
After passage, MDA-MB-468 cells were resuspended in complete medium at the corresponding density, 2000 cells/well, and inoculated in a 96-well culture plate. The wells at the outer circumference were filled with 200 μL PBS to prevent the culture conditions of the inner plate wells from being too different from each other due to the faster evaporation of medium at the edge. The leftmost column of the 60 inner wells were blank wells, which were not added with cells, but filled with equal volume of PBS. The remaining 54 wells were subjected to cell plating with a multichannel pipette, to each well was added 100 μL. The plate was placed in a CO2-free incubator and cultured at 37° C. for 24 h. […]
The first column of PBS was used as a blank control well, and 100 μL of CCK-8 was added synchronously thereto. […] The optimal detection time was determined according to the shade of color developed by CCK-8 (the optimal OD value for the DMSO group was about 1.0). […] The microplate reader software was opened, the detection parameters were adjusted, and the absorbance at 450 nm (OD value) was detected. The cover of the culture plate was removed, and the culture plate was directly placed horizontally in the plate groove to start reading. After the reading was finished, the program was saved, and the data was exported. […]

A further data set has as its target hERG potassium channel (Homo sapiens (Human), UniProt Q12809). Put plainly: Electrophysiological manual patch-clamp detection of effect on hERG potassium channel. A general note: In patch-clamp work, channel activity is measured electrically.

The structures appear in SMILES notation.

Chain of hERG potassium channel (Q12809 whole entry): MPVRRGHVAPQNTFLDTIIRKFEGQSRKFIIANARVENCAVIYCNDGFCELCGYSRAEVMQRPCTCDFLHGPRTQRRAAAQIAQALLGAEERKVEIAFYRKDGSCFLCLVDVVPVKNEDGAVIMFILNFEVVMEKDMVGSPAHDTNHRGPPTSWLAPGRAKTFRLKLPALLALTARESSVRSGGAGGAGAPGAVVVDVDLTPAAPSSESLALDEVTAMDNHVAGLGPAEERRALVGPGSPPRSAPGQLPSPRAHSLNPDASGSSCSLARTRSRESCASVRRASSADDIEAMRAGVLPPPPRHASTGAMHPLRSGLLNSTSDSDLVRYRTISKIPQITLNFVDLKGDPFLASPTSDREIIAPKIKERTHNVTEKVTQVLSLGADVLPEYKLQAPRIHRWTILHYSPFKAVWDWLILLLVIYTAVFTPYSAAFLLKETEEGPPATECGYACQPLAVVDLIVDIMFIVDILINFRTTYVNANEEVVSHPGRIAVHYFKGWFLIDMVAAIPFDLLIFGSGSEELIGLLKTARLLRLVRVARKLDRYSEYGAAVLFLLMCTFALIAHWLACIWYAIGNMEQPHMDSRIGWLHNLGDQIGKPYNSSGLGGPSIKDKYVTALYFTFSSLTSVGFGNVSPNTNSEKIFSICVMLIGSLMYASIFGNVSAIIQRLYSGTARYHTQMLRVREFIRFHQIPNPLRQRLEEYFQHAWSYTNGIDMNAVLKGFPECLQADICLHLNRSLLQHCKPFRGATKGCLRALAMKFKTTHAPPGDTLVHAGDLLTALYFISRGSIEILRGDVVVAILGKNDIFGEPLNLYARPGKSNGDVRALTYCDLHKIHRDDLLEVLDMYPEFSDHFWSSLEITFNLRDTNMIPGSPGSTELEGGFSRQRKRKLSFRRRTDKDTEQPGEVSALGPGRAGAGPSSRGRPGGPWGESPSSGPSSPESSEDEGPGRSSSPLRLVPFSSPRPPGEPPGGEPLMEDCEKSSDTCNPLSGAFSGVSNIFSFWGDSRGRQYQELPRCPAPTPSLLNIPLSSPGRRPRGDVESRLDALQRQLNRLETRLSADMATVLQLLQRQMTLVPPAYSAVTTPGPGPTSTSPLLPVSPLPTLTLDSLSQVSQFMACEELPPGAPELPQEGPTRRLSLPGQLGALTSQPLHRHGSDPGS
Description for hERG potassium channel: Preparation of test solvents: preparation of extracellular fluid (mM): 137 NaCl, 4 KCl, 1.8 CaCl2, 1 MgCl2, 10 glucose and 10 HEPES (pH 7.4); preparation of intracellular fluid (mM): 130 KCl, 1 MgCl2, 5 EGTA, 5 MgATP and 10 HEPES (pH 7.2); preparation of negative control: extracellular fluid+0.3% DMSO; positive control: quinidine.
Compound treatment: The compound was weighed and dissolved in DMSO to prepare a 10 mM stock solution, which was diluted with DMSO to form secondary stock solutions with concentrations of 3.3, 1.1, 0.37 and 0.12 mM. 90 μL each of the stock solution and the secondary stock solutions was diluted into 30 mL of extracellular fluid for electrophysiological detection. The final concentrations of the compound were 30, 10, 3.3, 1.1 and 0.37 μM, and the final concentration of DMSO was 3:1000.
Stably transfected cell culture: The cell line was originated from HEK-293 cells overexpressing hERG potassium ion channel. […] The cells were cultured in an incubator at 37° C. and 5% CO2. When the cell density reaches 80% of the petri dish, the cells were first pre-washed with phosphate buffered saline (PBS), then digested with trypsin/EDTA for 2-3 min. Cell culture medium was added to stop the digestion. The cells were gently blown down and transferred to a centrifuge tube, and centrifuged at 1000 rpm for 3 min. The supernatant was discarded, cell culture medium was added, and the cells were mixed uniformly by gentle tapping. After that, the mixture was transferred to a petri dish for subculture, or the cells were dripped on a round glass slide and placed on a petri dish for the cells to adhere for experiments.
Experiments on electrophysiological manual patch-clamp system: The stably transfected cells were inoculated on a glass slide with a cell density lower than 50%, and cultured overnight. The experimental cells were transferred to a bath of about 1 mL embedded in an inverted microscope platform, and the extracellular fluid was perfused at a perfusion rate of 2.7 mL/min. After 5 minutes of stabilization, the experiment was started. Membrane currents were recorded using HEKA EPC-10 patch clamp amplifier and [sequence] acquisition system. All the experiments were performed at room temperature (22-24° C.). Electrodes were drawn straight using P-97 microelectrode drawing instrument (BF150-110-10) in the experiments. The inner diameter of the electrode was 1-1.5 mm, and the pipette resistance after filling with the inner liquid was 2-4 MΩ. The electrophysiological stimulation scheme of hERG potassium channel included: first setting the membrane voltage at −80 mV, applying a stimulation to the cells at +20 mV voltage for 2 s to activate the hERG potassium channel, and then repolarizing to −50 mV for 5 s to generate an outward tail current. The stimulation frequency was once every 15 s. The current value was the peak value of the tail current. The channel currents were recorded in the whole-cell recording mode. Firstly, the extracellular fluid was perfused (about 2 mL per minute) while recording was continued. When the current was stabilized (the current decay (Run-Down) was less than 5% within 5 minutes), the peak value of the tail current was the control current value. Then, the extracellular fluid containing the drug to be tested was perfused while the recording was continued until the inhibitory effect of the drug on the hERG current reached a steady state. At this time, the peak value of the tail current was the current value after drug addition. […]

Turning to `CC(=O)N1CCC(Nc2cc3c(cn2)C2(CC2)CN(C[C@H](O)CN2CCc4ccccc4C2)C3=O)CC1` [Example 1, (R)-7′-((1-acetylpiperidin-4-yl)amino)-2′-(3-(3,4-dihydroisoquinolin-2(1H)-yl)-2-hydroxypropyl)-2′,3′-dihydro-1′H-spiro[cyclopropane-1,4′-[2,6]naphthyridin]-1′-one], the values for the IC50 in the data set with MDA-MB-468 cells and against hERG potassium channel were 11.6 nM and 5240 nM, respectively. The “inhibitory effect on the hERG potassium channel (in words)” value against hERG potassium channel (conclusion from Table 4) was “weak inhibitory effect”.

For the molecule `CC(=O)N1CCC(Nc2cc(C(=O)NC[C@H](O)CN3CCc4ccccc4C3)ncn2)CC1` [Compound A, (S)-6-((1-Acetylpiperidin-4-yl)amino)-N-(3-(3,4-dihydroisoquinolin-2(1H)-yl)-2-hydroxypropyl)pyrimidine-4-carboxamide], in the data set with MDA-MB-468 cells, the IC50 was 116 nM.

On to `CC(=O)N1CC2(CC(Nc3cc4c(cn3)C3(CC3)CN(C[C@H](O)CN3CCc5ccccc5C3)C4=O)C2)C1` [Example 2, (R)-7′-((2-acetyl-2-azaspiro[3.3]hept-6-yl)amino)-2′-(3-(3,4-dihydroisoquinolin-2(1H)-yl)-2-hydroxypropyl)-2′,3′-dihydro-1′H-spiro[cyclopropane-1,4′-[2,6]naphthyridin]-1-one], for which the IC50 in the data set on MDA-MB-468 cells came out at 7.35 nM; on hERG potassium channel it was 15100 nM.

On to `CC(=O)N1CCC(Nc2ccc3c(c2)C(=O)N(C[C@H](O)CN2CCc4ccccc4C2)CC32CC2)CC1` [Compound B, (R)-7′-((1-Acetylpiperidin-4-yl)amino)-2′-(3-(3,4-dihydroisoquinolin-2(1H)-yl)-2-hydroxypropyl)-2′,3′-dihydro-1′H-spiro[cyclopropane-1,4′-isoquinolin]-1′-one, reference compound], for which the IC50 in the data set with MDA-MB-468 cells worked out at 41.3 nM; against hERG potassium channel it was 2710 nM.
